Results: US9447136B2, “Semisynthetic derivatives of Nystatin A1” (BLIRT S.A., priority 2012, dated 2016)
Read-outs that look alike come from different tables or passages of the source.

How the values were obtained:
[1] = system: Candida tropicalis KKP 334; assay: Antifungal activity in vitro, serial dilution in RPMI 1640; assay type: cell-based; settings: Table 2A; RPMI 1640, pH 7.0
Procedure, shortened: (§1)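 Broth serial dilution per M27-A2 in buffered RPMI 1640, pH 7.0. Growth read as optical density at 531 nm; IC50 interpolated as concentration giving 50% of control A531, MIC as lowest concentration giving at most 20% of control A531.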

[2] = system: Candida albicans ATCC 10231; assay: as above; assay type: cell-based; settings: Table 2A, RPMI 1640, pH 7.0; for Antifungal activity Candida albicans ATCC 10231 IC50: A531 50% of control; for Antifungal activity Candida albicans ATCC 10231 MIC: A531 at most 20% of control
Procedure, shortened: as §1

Candida krusei DSM 6128 = assay: as above; assay type: cell-based; settings: Table 2A; RPMI 1640, pH 7.0
Procedure, shortened: as §1

[3] = system: Candida glabrata DSM 11226; assay: as above; assay type: cell-based; settings: Table 2A; RPMI 1640, pH 7.0
Procedure, shortened: as §1

[4] = system: Saccharomyces cerevisiae ATCC 9763; assay: as above; assay type: cell-based; settings: Table 2A; RPMI 1640, pH 7.0; A531 at most 20% of control
Procedure, shortened: as §1

HepG2 = assay: Cytotoxic activity against mammalian cells in tissue culture (MTT); assay type: cell-based, human
Protocol: (§2) For examinations were used selected cell lines: CCRF-CEM—human acute lymphoblastic leukemia; HepG2—human malignant hepatoma; LLC-PK1—epithelial cell of pig kidney; All lines were from ATCC collection.
(§3) The study are conducted using described below methods of culturing and determination of cytotoxic activity.
(§4) CCRF-CEM cells were cultured in medium RPMI 1640+10% fetal bovine serum (FBS), LLC-PK1 cells in medium Medium 199+3% FBS, HepG2 cells in medium MEM+10% FBS. All media contained 100 μg/ml of penicillin G and streptomycin. 24-wells microplates containing appropriate medium were inoculated with the cells in amount of 1.2×10^4 cells/well and allowed to stand overnight. Next, tested compounds as solution in dimethylsulfoxide (DMSO) were added in volume of 10 μl (serial 2× dilutions). To control well 10 μl of DMSO was added. Microplates with cell suspensions were incubated for 120 h at temperature 37° C. at atmosphere of 95%/5% CO2. After incubation, to all wells 200 μl of solution of 3-(4,5-dimethylthiazole-2-yl)-2,5-diphenylotetrazole bromide (MTT) in PBS (4 mg/ml) was added and plates were further incubated for 4 h at 37° C. Next, to dissolve crystals of formazane 1 ml of DMSO was added and absorption of solutions was measured at the wavelength λ=540 nm (A540), using a microplates reader (Victor^3, Perkin-Wallac). […] From these graphs IC50 values were read, that is concentration of tested compound in the presence at which A540 value is half of A540 value measured in the control sample.

CCRF-CEM = assay: as above; assay type: cell-based, human
Protocol: as §2, §3, §4

Human erythrocytes = assay: Hemotoxicity (hemolytic activity); settings: for Hemotoxicity BEH50: 37° C., 30 minutes, concentration causing 50% hemolysis, maximum concentration 300 μg/ml
Protocol: The hemotoxicity determination were carried out by the serial dilutions method, according to the procedure described earlier (Ślisz, M., et al., E., J Antibiot 57: 669-678 (2004)). Human erythrocytes were suspensed in the solution of saline to obtain a cell density of suspension 2×10^7/ml. Suitable amounts of diluted solutions of compounds were added to the cell suspension in tubes and were incubated at 37° C. for 30 minutes and then centrifuged (1700×g, 10 min, 4° C.). The concentration of hemoglobin in supernatant after centrifugation of erythrocytes suspension were determined by measuring the absorbance at wavelength λ=540 nm (A540). The maximum level of hemolysis was obtained after incubation of cells suspension in the presence of 0.1% Tritone X-100 (control sample). […] From these graphs, the EH50 values were read which are the interpolated concentrations of compound, for which the A540 value is exactly 50% of the A540 value measured for the control sample.

LLC-PK1 = assay: Cytotoxic activity against mammalian cells in tissue culture (MTT); assay type: cell-based, pig
Protocol: as §2, §3, §4

[5] = system: Candida lusitaniae DSM 70102; assay: Antifungal activity in vitro, serial dilution in RPMI 1640; assay type: cell-based; settings: Table 2A; RPMI 1640, pH 7.0
Procedure, shortened: as §1

[6] = human erythrocytes, concentration causing 10% of hemolysis

Compound | Antifungal activity Candida tropicalis KKP 334 MIC [1] [µg/mL] | Antifungal activity Candida albicans ATCC 10231 IC50 [2] [µg/mL] | Antifungal activity Candida albicans ATCC 10231 MIC [2] [µg/mL] | Antifungal activity Candida krusei DSM 6128 MIC (Candida krusei DSM 6128) [µg/mL] | Antifungal activity Candida glabrata DSM 11226 MIC [3] [µg/mL] | Antifungal activity Saccharomyces cerevisiae ATCC 9763 MIC [4] [µg/mL] | Cytotoxicity IC50 HepG2 (HepG2; HepG2, 120 h, MTT) [µg/mL] | Cytotoxicity IC50 CCRF-CEM (CCRF-CEM; CCRF-CEM, 120 h, MTT) [µg/mL] | Hemotoxicity BEH50 (Human erythrocytes; human erythrocytes) [µg/mL] | % of hemolysis at the concentration 60 μg ml^−1 (Human erythrocytes; human erythrocytes, 60 μg ml^−1) [%] | Cytotoxicity IC50 LLC-PK1 (LLC-PK1; LLC-PK1, 120 h, MTT) [µg/mL] | EH10 (Human erythrocytes; [6]) [µg/mL] | Cytotoxicity IC50 LLC-PK1 (LLC-PK1) [µg/mL] | Cytotoxicity IC50 HepG2 (HepG2) [µg/mL] | Cytotoxicity IC50 CCRF-CEM (CCRF-CEM) [µg/mL] | Antifungal activity Candida lusitaniae DSM 70102 MIC [5] [µg/mL] | EH10 (Human erythrocytes) [µg/mL] | % of hemolysis at the concentration 60 μg ml^−1 (Human erythrocytes) [%]
CC1OC(O[C@H]2/C=C/C=C/C=C/C=C/CC/C=C/C=C/[C@H](C)[C@@H](O)[C@@H](C)[C@H](C)OC(=O)C[C@H](O)C[C@H](O)C[C@H](O)CC[C@@H](O)[C@H](O)CC3(O)C[C@H](O)[C@@H](C(=O)O)[C@H](C2)O3)C(O)C(NC(=O)[C@@H](N)Cc2ccccc2)C1O (stereo partly drawn) [Compound N34, N-L-phenylalanylnystatin A1] | 8 | 6.01 | 8 | 8 | 8 | 4 | >100 | >100 | >300 | 0.02 |  |  |  |  |  |  |  | 
CC1OC(O[C@H]2/C=C/C=C/C=C/C=C/CC/C=C/C=C/[C@H](C)[C@@H](O)[C@@H](C)[C@H](C)OC(=O)C[C@H](O)C[C@H](O)C[C@H](O)CC[C@@H](O)[C@H](O)CC3(O)C[C@H](O)[C@@H](C(=O)O)[C@H](C2)O3)C(O)C(NCc2ccccc2)C1O (stereo partly shown) [Compound N21, N-benzylnystatin A1] | 4 | 2.32 | 4 | 4 | 4 | 2 | 68.3 ± 8.06 | 91.9 ± 4.35 | 188.56 |  | >100 | 91.60 |  |  |  |  |  | 
CC1OC(O[C@H]2/C=C/C=C/C=C/C=C/CC/C=C/C=C/[C@H](C)[C@@H](O)[C@@H](C)[C@H](C)OC(=O)C[C@H](O)C[C@H](O)C[C@H](O)CC[C@@H](O)[C@H](O)CC3(O)C[C@H](O)[C@@H](C(=O)O)[C@H](C2)O3)C(O)C(NC(=O)[C@H](N)Cc2cccc3ccccc23)C1O (stereo partly shown) [Compound N39] | 8 | 6.05 | 8 | 16 | 16 | 8 |  |  |  |  |  |  | >100 | >100 | >100 |  |  | 
CC1OC(O[C@H]2/C=C/C=C/C=C/C=C/CC/C=C/C=C/[C@H](C)[C@@H](O)[C@@H](C)[C@H](C)OC(=O)C[C@H](O)C[C@H](O)C[C@H](O)CC[C@@H](O)[C@H](O)CC3(O)C[C@H](O)[C@@H](C(=O)O)[C@H](C2)O3)C(O)C(NC2CC(=O)N(CCN3CCCCC3)C2=O)C1O (stereo partly shown) [Compound N8, N—[N′-2-(piperidin-1-yl)ethylsuccinimidyl]nystatin A1] | 2 | 1.54 | 2 | 4 | 4 | 2 |  |  |  |  |  | 150.73 |  |  |  | 2 |  | 
C[C@@H]1[C@H](O)[C@@H](C)/C=C/C=C/CC/C=C/C=C/C=C/C=C/[C@H](O[C@@H]2O[C@H](C)[C@@H](O)[C@H](N(C)C)[C@@H]2O)C[C@@H]2O[C@](O)(C[C@@H](O)C[C@@H](O)[C@H](O)CC[C@@H](O)C[C@@H](O)CC(=O)O[C@H]1C)C[C@H](O)[C@H]2C(=O)O [Compound N23, N,N-dimethylnystatin A1] | 4 | 2.47 | 4 | 8 | 8 | 4 |  |  |  |  |  |  |  |  |  | 2 | 214.20 | 
CCN(CC)CCNC(=S)NC1C(O)C(C)OC(O[C@H]2/C=C/C=C/C=C/C=C/CC/C=C/C=C/[C@H](C)[C@@H](O)[C@@H](C)[C@H](C)OC(=O)C[C@H](O)C[C@H](O)C[C@H](O)CC[C@@H](O)[C@H](O)CC3(O)C[C@H](O)[C@@H](C(=O)O)[C@H](C2)O3)C1O (stereo partly shown) [Compound N14, N-{3-[2-(N,N-diethylamino)ethyl]thioureidyl}nystatin A1] | 8 | 3.21 | 8 | 16 | 16 | 4 | >100 | >100 |  |  | >100 |  |  |  |  | 4 |  | 
N-[3-(piperidin-1-yl)propionyl]nystatin A1 [Compound N44] | 4 | 2.95 | 4 | 8 | 8 | 4 | >100 | >100 |  |  | >100 | 209.39 |  |  |  |  |  | 0.95
